Assays:
[1] = biological target: T1, PGD2 receptor (Homo sapiens, UniProt Q13258); assay: Binding activity to PGD2 receptor ([3H]PGD2, human platelet membrane fraction)
T1 construct: A suspension adjusted to contain the platelets at a final concentration of 5×10^8/ml was warmed at 37° C; endogenous in cells; host or cells: washed human platelets from a healthy volunteer
T1 sequence (Q13258 1-359): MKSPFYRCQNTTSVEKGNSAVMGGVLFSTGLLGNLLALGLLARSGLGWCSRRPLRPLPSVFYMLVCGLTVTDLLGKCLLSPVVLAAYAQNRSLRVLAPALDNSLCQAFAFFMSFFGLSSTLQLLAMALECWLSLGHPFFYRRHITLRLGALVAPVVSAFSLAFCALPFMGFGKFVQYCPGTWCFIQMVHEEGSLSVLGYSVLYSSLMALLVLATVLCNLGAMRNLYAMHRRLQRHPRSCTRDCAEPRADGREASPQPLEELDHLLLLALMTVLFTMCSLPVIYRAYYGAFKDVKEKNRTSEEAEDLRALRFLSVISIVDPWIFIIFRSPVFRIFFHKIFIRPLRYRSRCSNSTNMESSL
Experimental: Experiment 1 Binding Activity to PGD2 Receptor
(1) Preparation of Human Platelet Membrane Fraction
Blood was collected using a plastic syringe containing 3.8% sodium citrate from the vein of healthy volunteers (adult male and female), then put into a plastic test tube and mixed by slow-reversion. The sample was then centrifuged at 1800 rpm, for 10 min at room temperature, and the supernatant containing PRP (platelet-rich plasma) was collected. The PRP was re-centrifuged at 2300 rpm, for 22 min at room temperature to obtain platelets. The platelets were homogenized using a homogenizer (Ultra-Turrax) followed by centrifugation 3 times at 20,000 rpm, 10 min at 4° C. to obtain a platelet membrane fraction. After protein determination, the membrane fraction was adjusted to 2 mg/ml and preserved in a refrigerator at −80° C. until using for the binding test.
(2) Binding to PGD2 Receptor
To a binding-reaction solution (50 mM Tris/HCl, pH 7.4, 5 mM MgCl2) (0.2 ml) were added the human platelet membrane fraction (0.1 mg) and 5 nM [^3H]PGD2 (115 Ci/mmol), and the mixture was reacted at 4° C. for 90 min. After the reaction, the mixture was filtered through a glass fiber filter paper and washed several times with cooled physiological saline, then the radioactivity retained on the filter paper was measured. The specific-binding ratio was calculated by subtracting the non-specific binding ratio which is the radioactivity similarly measured in the presence of 10 μM PGD2 from the total binding. The inhibitory activity of each compound was expressed as the concentration required for 50% inhibition (IC50), which was determined by depicting a substitution curve by plotting the binding ratio (%) in the presence of each compound, where the binding ratio in the absence of a test compound is 100%.

[2] = biological target: T1, PGD2 receptor; assay: Antagonistic activity against PGD2 receptor using human platelet (inhibition of PGD2-induced cAMP increase); assay type: cell-based
Experimental: Experiment 3 Evaluation of Antagonistic Activity Against PGD2 Receptor
Receptor Using Human Platelet
Peripheral blood was collected from a healthy volunteer using a syringe in which 1/9 volume of a citric acid/dextrose solution was previously added. The sample was subjected to centrifugation at 1200 rpm for 10 min to obtain the supernatant (PRP: platelet rich plasma). The resultant PRP was washed 3 times with a washing buffer and the number of platelets was counted with a micro cell counter. A suspension adjusted to contain the platelets at a final concentration of 5×10^8/ml was warmed at 37° C., then subjected to the pre-treatment with 3-isobutyl-1-methylxanthine (0.5 mM) for 5 min. To the suspension was added a test compound diluted at various concentration, and 10 minutes later, 0.1 μM PGD2 was added to induce the reaction 2 minutes later, hydrochloric acid was added to terminate the reaction. The platelet was destroyed with an ultrasonic homogenizer. After centrifugation, the cAMP in the supernatant was determined by radioimmunoassay. PGD2 receptor antagonism of a drug was evaluated as follows: the inhibition rate regarding cAMP increased by the addition of PGD2 was determined at each concentration, and the concentration of the drug required for 50% inhibition (IC50) was calculated.

[3] = test system: Eosinophil Number in Bronchoalveolar Lavage Fluid; assay: Antigen-induced increase in the eosinophil number in bronchoalveolar lavage fluid; assay type: in vivo, guinea pig; details: for suppression of eosinophil infiltration: summary of Table 77 to Table 79, bronchoalveolar lavage fluid
Experimental: Antigen-Induced Increase in the Eosinophil Number in Bronchoalveolar Lavage Fluid.
Bronchoalveolar lavage was performed with 10 mL of saline, after the animals were sensitized and challenged with antigen. The number of total cells in the recovered fluid was stained with Türk and counted using hemocytometer. *: P<0.05, **:P<0.01 vs Vehicle(Dunnett's test), ^##: P<0.01 vs Vehicle(Student's t test). ( ): inhibition %.

[4] = test system: PGD2 receptor; assay: Acceleration of vascular permeability of conjunctiva induced by PGD2 (Evans blue dye leakage); assay type: in vivo, guinea pig; details: for ED50 PGD2: oral, 1 h before challenge, 0.1% PGD2 instillation, conjunctival dye leakage, guinea pigs; for inhibition of the increase in vascular permeability in conjunctiva by the stimulation with PGD2: summary of Table 80, oral 1 h before challenge, guinea pig
Experimental: (§1) Acceleration of Vascular Permeability of Conjunctiva Induced by PGD2 and U-46619
(§2) Using male Hartley guinea pigs, PGD2- and TxA2 receptor-mediated increase in conjunctival vascular permeability was produced by instillation of each 10 μl solution of either 0.1% PGD2 or U-46619 (TXA2 receptor agonist) to the both eyes without anesthetization. Immediately after that, Evans blue dye (20 mg/kg) was intravenously injected. 30 min after the challenge, guinea pigs were sacrificed by bleeding under anesthesia with Pentobarbital (30 mg/kg, i.p.) and the tissue of conjunctiva was removed. The dye leaked into the tissue was extracted in formamide 3 ml at 60° C. for more than 24 h, and then centrifuged. The absorbance of the supernatant was measured at 620 nm. The amount of dye was calculated from the calibration curve of Evans blue dye. Each compound was suspended in 0.5% methyl-cellulose and administrated orally at 1 h before the challenge. The antagonistic activity was evaluated by the inhibition ratio against the dye leaked into conjunctiva caused by PGD2 or U-46619 at each dose and then a 50% effective dose of inhibition (ED50 value) of each compound was calculated.

[5] = test system: TxA2 receptor; assay: Acceleration of vascular permeability of conjunctiva induced by U-46619 (Evans blue dye leakage); assay type: in vivo, guinea pig; details: for ED50 TXA2 (U-46619): oral, 1 h before challenge, 0.1% U-46619 instillation, conjunctival dye leakage, guinea pigs; for inhibition of the increase in vascular permeability in conjunctiva caused by U-46619: summary of Table 80, oral 1 h before challenge, guinea pig
Experimental: as §1, §2

[6] = comparative experiment in accordance with Experiment 1, read-out: Experiment 1 Antagonistic activity against PGD2 receptor IC50
[7] = comparative experiment in accordance with Experiment 3, read-out: Experiment 3 Antagonistic activity against PGD2 receptor IC50
[8] = 10 mg/kg, bronchoalveolar lavage fluid after antigen challenge

SMILES: Cc1cccn1S(=O)(=O)c1ccc(C(=O)N[C@@H]2[C@@H](CCCC/C=C/C(=O)O)C[C@H]3C[C@@H]2C3(C)C)s1 [II-7I-55a]
- IC50 [1, 6]: 0.0018 µM
- IC50 ([1]; human platelet membrane fraction, read-out: Binding activity to PGD2 receptor in human platelet membrane fraction IC50): 0.0018 µM
- IC50 [2, 7]: 0.063 µM
- IC50 ([2]; human platelet, 0.1 μM PGD2, read-out: Inhibitory activity for the increase of cAMP caused by PGD2 in human platelet IC50): 0.063 µM
- Total cells [3, 8]: 12.26 ± 1.54 × 10^6 cells/animal
- inhibition % (total cells in bronchoalveolar lavage fluid) [3, 8]: 80%
- suppression of eosinophil infiltration [3]: significantly suppressed
- ED50 PGD2 [4]: 0.33 mg/kg
- inhibition of the increase in vascular permeability in conjunctiva by the stimulation with PGD2 [4]: showed both responses
- ED50 TXA2 (U-46619) [5]: 0.030 mg/kg
- inhibition of the increase in vascular permeability in conjunctiva caused by U-46619 [5]: showed both responses

SMILES: O=C(O)CCC/C=C\C[C@H]1[C@@H]2CC[C@@H](C2)[C@@H]1NS(=O)(=O)c1ccccc1 [A, reference compound]
- IC50 [1, 6]: > 10 µM
- IC50 [2, 7]: > 10 µM
- Total cells [3, 8]: 15.20 ± 2.20 × 10^6 cells/animal
- inhibition at 10 mg/kg ([3]; Cavia porcellus, Eosinophil, 10 mg/kg, bronchoalveolar lavage fluid after antigen challenge, read-out: inhibition % (total cells in bronchoalveolar lavage fluid) (converted)): -12%
- suppression of eosinophil infiltration [3]: did not show any inhibitory actions
- ED50 PGD2 [4]: >30 mg/kg
- inhibition of the increase in vascular permeability in conjunctiva by the stimulation with PGD2 [4]: suppressed only U-46619-induced response
- ED50 TXA2 (U-46619) [5]: 0.017 mg/kg
- inhibition of the increase in vascular permeability in conjunctiva caused by U-46619 [5]: suppressed
